The values that follow come from PubChem BioAssay (NCI).

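96-well plates; 48 h exposure; 5 concentrations. Endpoints by linear interpolation between flanking doses. Not reached: highest tested concentration assigned. At the TGI there is no net growth.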 Where only a bound is given, the exact number is not on record here.

Some test systems named below: SN12C renal; IGROV1 ovarian; HCC-2998 colon; OVCAR-8 ovarian; U251 CNS; M14 melanoma; RPMI-8226 leukemia; SK-MEL-2 melanoma; SK-MEL-28 melanoma; RXF 393 renal; UACC-62 melanoma; 786-0 renal; HCT-15 colon; EKVX NSCLC; KM12 colon; OVCAR-5 ovarian; SF-539 CNS; PC-3 prostate; T-47D breast.
What all share (assay): DTP human tumour cell line panel, 48 h

By TGI is commonly meant the concentration at which net growth stops. Read a high TGI as less potent growth arrest. Turning to `COc1ccc(NC(=O)CC(=O)N2N=C(N(CCC#N)c3ccccc3Cl)CC2c2ccccc2)cc1` (stereo unspecified), the TGI with SN12C renal, with IGROV1 ovarian, with HCC-2998 colon, with OVCAR-8 ovarian, in the assay with U251 CNS and with M14 melanoma was more than 100 µM throughout. The TGI in the assay with RPMI-8226 leukemia, in the assay with SK-MEL-2 melanoma, in the assay on SK-MEL-28 melanoma, in the assay on RXF 393 renal, with UACC-62 melanoma and in the assay on 786-0 renal was more than 100 µM throughout. The TGI in the assay with HCT-15 colon, with EKVX NSCLC, with KM12 colon, with OVCAR-5 ovarian and in the assay with SF-539 CNS was more than 100 µM in each case.

With `COC(=O)[C@@H]1C=C[C@H](OC2OC(COC(C)=O)C(OC(C)=O)C(OC(C)=O)C2OC(C)=O)n2c(=O)c3ccccc3c(=O)n21` (stereo partly specified), the TGI was 33.3 µM in the assay on IGROV1 ovarian; 29.6 µM in the assay on HCC-2998 colon; 49 µM with OVCAR-8 ovarian; 25.3 µM with PC-3 prostate; 25.1 µM in the assay with U251 CNS; 36.9 µM in the assay with M14 melanoma. The TGI with RPMI-8226 leukemia turned out to be 35.6 µM; with SK-MEL-2 melanoma, 24.5 µM; with SK-MEL-28 melanoma, 27.8 µM; in the assay on RXF 393 renal, 20.1 µM; in the assay on UACC-62 melanoma, 23 µM; in the assay on 786-0 renal it was 58.9 µM. Also, the TGI turned out to be 22.7 µM with HCT-15 colon; 30.5 µM with EKVX NSCLC; 27.4 µM in the assay on KM12 colon; 20.9 µM in the assay with T-47D breast; 29.6 µM in the assay on OVCAR-5 ovarian; 33.7 µM with SF-539 CNS.

`Nc1nc2sc3ccccc3c(=O)n2n1`: the TGI in the assay with SN12C renal, in the assay on IGROV1 ovarian, in the assay on HCC-2998 colon, with OVCAR-8 ovarian, with U251 CNS and with M14 melanoma was more than 100 µM in each case. The TGI with RPMI-8226 leukemia, with SK-MEL-2 melanoma, in the assay on SK-MEL-28 melanoma, in the assay on RXF 393 renal, in the assay with UACC-62 melanoma and in the assay on 786-0 renal was more than 100 µM in each case. Besides, the TGI in the assay on HCT-15 colon, in the assay on EKVX NSCLC, with KM12 colon, in the assay with OVCAR-5 ovarian and with SF-539 CNS was more than 100 µM in each case.

On to `CN(C)c1nc2oc(-c3ccccc3)c(-c3ccccc3)c2c2nncn12`, for which the TGI in the assay on SN12C renal, with IGROV1 ovarian, in the assay on HCC-2998 colon, in the assay with OVCAR-8 ovarian, with U251 CNS and in the assay with M14 melanoma was more than 100 µM each time. Moreover, the TGI in the assay with RPMI-8226 leukemia, with SK-MEL-28 melanoma, with RXF 393 renal, in the assay on UACC-62 melanoma, in the assay on 786-0 renal and in the assay with HCT-15 colon was more than 100 µM each time. Further, the TGI in the assay with EKVX NSCLC, in the assay with KM12 colon, with T-47D breast, in the assay with OVCAR-5 ovarian and in the assay with SF-539 CNS was more than 100 µM each time.

In the case of `C=[N+](CNC(=O)CNC(=O)C(Cc1ccc([N+](=O)[O-])cc1)NC(=O)OC(C)(C)C)C(=O)CNC(=O)C(Cc1ccc([N+](=O)[O-])cc1)NC(=O)OC(C)(C)C` (stereo unspecified), the TGI in the assay with SN12C renal, in the assay with IGROV1 ovarian, in the assay on HCC-2998 colon, in the assay on OVCAR-8 ovarian, in the assay with PC-3 prostate and with U251 CNS was more than 100 µM throughout. The TGI in the assay on M14 melanoma was more than 100 µM; with RPMI-8226 leukemia, 50.4 µM; in the assay on SK-MEL-28 melanoma, 72.6 µM; in the assay with RXF 393 renal, more than 100 µM; in the assay on UACC-62 melanoma, 50.1 µM; in the assay with 786-0 renal, more than 100 µM. Moreover, the TGI in the assay with HCT-15 colon was more than 100 µM; in the assay with EKVX NSCLC, more than 100 µM; in the assay with KM12 colon, more than 100 µM; in the assay on OVCAR-5 ovarian, more than 100 µM; in the assay on SF-539 CNS it was 57.9 µM.

As to `CC(C)CC[C@H](O)[C@@H](C)[C@H]1[C@@H](OC2OC(C)C(O)C(O)C2O)C[C@H]2[C@@H]3CC=C4C[C@@H](O)CC[C@]4(C)[C@H]3[C@@H](O)C[C@]12C` (stereo partly specified), the TGI in the assay on SN12C renal is more than 100 µM; in the assay with IGROV1 ovarian, 40.4 µM; with HCC-2998 colon it was more than 100 µM; in the assay on OVCAR-8 ovarian it was more than 100 µM; with PC-3 prostate it was more than 100 µM; in the assay on U251 CNS, more than 100 µM. In addition, the TGI is more than 23.4 µM in the assay on M14 melanoma; 0.229 µM in the assay on RPMI-8226 leukemia; more than 100 µM in the assay with SK-MEL-2 melanoma; 6.47 µM in the assay with SK-MEL-28 melanoma; more than 100 µM in the assay on RXF 393 renal; 3.21 µM in the assay with UACC-62 melanoma. Moreover, the TGI in the assay on 786-0 renal was more than 100 µM; in the assay with HCT-15 colon it was more than 100 µM; in the assay with EKVX NSCLC, more than 100 µM; in the assay with T-47D breast, more than 100 µM; in the assay with OVCAR-5 ovarian, more than 100 µM; with SF-539 CNS it was 0.578 µM.

With `Nc1ccc2nc(NCc3ccc(F)cc3)cnc2c1`, the TGI in the assay on SN12C renal, in the assay on IGROV1 ovarian, with HCC-2998 colon, in the assay on OVCAR-8 ovarian, in the assay on U251 CNS and in the assay with M14 melanoma was more than 100 µM each time. Besides, the TGI with RPMI-8226 leukemia, with SK-MEL-2 melanoma, in the assay with SK-MEL-28 melanoma, in the assay with RXF 393 renal, in the assay with UACC-62 melanoma and with 786-0 renal was more than 100 µM each time. In addition, the TGI in the assay on HCT-15 colon, in the assay on EKVX NSCLC, with KM12 colon, in the assay on OVCAR-5 ovarian and with SF-539 CNS was more than 100 µM in each case.
